ChEMBL document CHEMBL5728586, “Substituted 6-azabenzimidazole compounds” (2021)

Molecular target: Mitogen-activated protein kinase kinase kinase kinase 1 (Homo sapiens, UniProt Q92918)
Test: Enzymatic Activity Assay: Recombinant HPK1 kinase domain produced via baculovirus infection of insect cells was obtained from Proteros (Proteros Biostructures #PR-0322) and was pre-activated in the presence of 2 mM ATP (Sigma-Aldrich, cat #GE27-2056-01) and 2 mM magnesium chloride for 16 hours at 4° C. The protein reaction mixture was then loaded to a desalting column (Thermo Fisher Scientific, Cat #89889) to remove excess ATP. HPK1 was eluted with buffer containing 20 mM Tris (2-Amino-2-(hydroxymethyl)propane-1,3-diol) pH 8.0, 150 mM NaCl, 2 mM dithiothreitol and 5% glycerol, and was frozen at −80° C. for later use. HPK1 dual phosphorylation was confirmed by mass spectrometry.Ten nanoliters of test compounds dissolved in DMSO at various concentrations were dispensed into a 384-well ProxiPlate (PerkinElmer #6008289). Five microliters of a solution of recombinant HPK1 diluted in HPK1 kinase assay buffer (50 mM BES [N,N-Bis(2-hydroxyethyl)-2-aminoethanesulfonic acid], pH 7.0; 10 mM magnesium chloride; 0.01% Triton X-100; 1 mM dithiothreitol; 0.01% bovine serum albumin; 0.1 mM sodium orthovanadate) was added to the compound-containing plate and was incubated for 15 minutes at 25° C. Five microliters of a mixture of ATP (Sigma-Aldrich #A6559) and peptide substrate STK S1 (Cisbio #61ST1BLC) diluted in HPK1 kinase assay buffer was then added to start the reaction. […]

Mitogen-activated protein kinase kinase kinase kinase 1, sequence (Q92918 whole entry, the tested form may be a part): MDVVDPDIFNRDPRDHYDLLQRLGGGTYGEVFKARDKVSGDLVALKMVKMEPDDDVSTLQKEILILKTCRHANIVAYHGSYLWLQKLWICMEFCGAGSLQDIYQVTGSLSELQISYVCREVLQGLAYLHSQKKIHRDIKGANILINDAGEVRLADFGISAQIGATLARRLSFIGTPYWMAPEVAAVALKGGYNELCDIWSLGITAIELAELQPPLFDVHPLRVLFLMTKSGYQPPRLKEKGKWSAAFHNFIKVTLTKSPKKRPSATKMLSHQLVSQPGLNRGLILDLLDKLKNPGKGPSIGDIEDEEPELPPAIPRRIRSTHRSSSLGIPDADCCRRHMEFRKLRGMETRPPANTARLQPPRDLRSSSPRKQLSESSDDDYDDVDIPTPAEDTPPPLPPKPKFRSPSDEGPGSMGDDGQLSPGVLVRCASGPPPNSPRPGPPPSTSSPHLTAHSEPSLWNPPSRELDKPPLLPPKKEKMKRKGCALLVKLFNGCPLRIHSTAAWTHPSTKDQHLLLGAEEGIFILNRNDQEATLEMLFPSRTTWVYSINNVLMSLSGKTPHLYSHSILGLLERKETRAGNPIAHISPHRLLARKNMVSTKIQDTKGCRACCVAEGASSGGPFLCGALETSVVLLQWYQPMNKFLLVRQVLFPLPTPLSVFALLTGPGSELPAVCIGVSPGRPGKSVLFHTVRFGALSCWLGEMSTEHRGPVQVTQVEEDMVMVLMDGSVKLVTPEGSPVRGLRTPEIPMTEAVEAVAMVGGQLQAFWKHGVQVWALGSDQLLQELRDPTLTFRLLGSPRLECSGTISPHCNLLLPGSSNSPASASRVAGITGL

SMILES	IC50
CC(C)n1cnc2cc(-c3ccc4c(c3)N([C@H]3C[C@@H](N5CCC(C)(C)C5)C3)C(=O)C43CCN(C(=O)[C@H]4CC[C@@H](C)O4)CC3)nc(Nc3ccncc3F)c21	0.2 nM
CC(C)n1cnc2cc(-c3ccc4c(c3)N([C@H]3C[C@@H](N5CCC(C)(C)C5)C3)C(=O)C43CCN(C(=O)[C@@H]4OCC[C@@H]4C)CC3)nc(Nc3ccncc3F)c21	0.3 nM
